Source: PubChem BioAssay AID1745844 (Carcinogenic Potency Database (CPDB), 2022)

Tested on: rodent lifetime carcinogenesis bioassay, tumor incidence TD50
Assay: chronic cancer bioassays in animals – CPDB, compiled studies (AID 1745844)
Settings: rat

Compound: C=CCl
- TD50 (strain Charles River CD (Sprague-Dawley), females, inhaled, site: liver, lesion: hemangiosarcoma, dosed 26 weeks, study length 78 weeks): 115 mg/kg/day
- TD50 (strain Charles River CD (Sprague-Dawley), females, inhaled, site: liver, lesion: hemangiosarcoma, dosed 43 weeks, study length 95 weeks): 69.5 mg/kg/day
- TD50 (strain Charles River CD (Sprague-Dawley), females, inhaled, site: liver, lesion: hepatocellular carcinoma, dosed 43 weeks, study length 95 weeks): 225 mg/kg/day
- TD50 (strain Charles River CD (Sprague-Dawley), females, inhaled, site: liver, lesion: neoplastic nodule, dosed 43 weeks, study length 95 weeks): 315 mg/kg/day
- TD50 (strain Charles River CD (Sprague-Dawley), males, inhaled, site: liver, lesion: hemangiosarcoma, dosed 43 weeks, study length 95 weeks): 103 mg/kg/day
- TD50 (strain Charles River CD (Sprague-Dawley), males, inhaled, site: liver, lesion: hepatocellular carcinoma, dosed 26 weeks, study length 78 weeks): 52.9 mg/kg/day
- TD50 (strain Charles River CD (Sprague-Dawley), males, inhaled, site: liver, lesion: hepatocellular carcinoma, dosed 43 weeks, study length 95 weeks): 265 mg/kg/day
- TD50 (strain Charles River CD (Sprague-Dawley), males, inhaled, site: liver, lesion: neoplastic nodule, dosed 26 weeks, study length 78 weeks): 11.5 mg/kg/day
- TD50 (strain Charles River CD (Sprague-Dawley), males, inhaled, site: liver, lesion: neoplastic nodule, dosed 43 weeks, study length 95 weeks): 34.6 mg/kg/day
- TD50 (strain Fischer 344, females, inhaled, site: all sites, lesion: hemangiosarcoma, dosed 26 weeks, study length 104 weeks): 91.2 mg/kg/day
- TD50 (strain Fischer 344, females, inhaled, site: all sites, lesion: hemangiosarcoma, dosed 52 weeks, study length 104 weeks): 29.5 mg/kg/day
- TD50 (strain Fischer 344, females, inhaled, site: all sites, lesion: hemangiosarcoma, dosed 78 weeks, study length 104 weeks): 32.8 mg/kg/day
- TD50 (strain Fischer 344, females, inhaled, site: all sites, lesion: hemangiosarcoma, dosed 104 weeks, study length 104 weeks): 23.6 mg/kg/day
- TD50 (strain Fischer 344, females, inhaled, site: liver, lesion: hepatocellular carcinoma, dosed 26 weeks, study length 104 weeks): 103 mg/kg/day
- TD50 (strain Fischer 344, females, inhaled, site: liver, lesion: hepatocellular carcinoma, dosed 52 weeks, study length 104 weeks): 101 mg/kg/day
- TD50 (strain Fischer 344, females, inhaled, site: liver, lesion: hepatocellular carcinoma, dosed 78 weeks, study length 104 weeks): 65.2 mg/kg/day
- TD50 (strain Fischer 344, females, inhaled, site: liver, lesion: hepatocellular carcinoma, dosed 104 weeks, study length 104 weeks): 77.2 mg/kg/day
- TD50 (strain Fischer 344, females, inhaled, site: liver, lesion: neoplastic nodule, dosed 26 weeks, study length 104 weeks): 17.6 mg/kg/day
- TD50 (strain Fischer 344, females, inhaled, site: liver, lesion: neoplastic nodule, dosed 52 weeks, study length 104 weeks): 16.2 mg/kg/day
- TD50 (strain Fischer 344, females, inhaled, site: liver, lesion: neoplastic nodule, dosed 78 weeks, study length 104 weeks): 96.3 mg/kg/day
- TD50 (strain Fischer 344, females, inhaled, site: liver, lesion: neoplastic nodule, dosed 104 weeks, study length 104 weeks): 166 mg/kg/day
- TD50 (strain Fischer 344, females, inhaled, site: mammary gland, lesion: adenocarcinoma, dosed 52 weeks, study length 104 weeks): 38 mg/kg/day
- TD50 (strain Fischer 344, females, inhaled, site: mammary gland, lesion: adenocarcinoma, dosed 78 weeks, study length 104 weeks): 74.2 mg/kg/day
- TD50 (strain Fischer 344, females, inhaled, site: mammary gland, lesion: adenocarcinoma, dosed 104 weeks, study length 104 weeks): 264 mg/kg/day
- TD50 (strain Fischer 344, females, inhaled, site: mammary gland, lesion: fibroadenoma, dosed 26 weeks, study length 104 weeks): 15.1 mg/kg/day
- TD50 (strain Fischer 344, females, inhaled, site: mammary gland, lesion: fibroadenoma, dosed 52 weeks, study length 104 weeks): 14.6 mg/kg/day
- TD50 (strain Fischer 344, females, inhaled, site: mammary gland, lesion: fibroadenoma, dosed 78 weeks, study length 104 weeks): 29.7 mg/kg/day
- TD50 (strain Fischer 344, females, inhaled, site: mammary gland, lesion: fibroadenoma, dosed 104 weeks, study length 104 weeks): 32.9 mg/kg/day
- TD50 (strain Sprague-Dawley, females, by gavage, site: Zymbal's gland, lesion: carcinoma, dosed 59 weeks, study length 129 weeks): 5.05 mg/kg/day
- TD50 (strain Sprague-Dawley, females, by gavage, site: any site (literature study), lesion: several types, types named in the paper, dosed 52 weeks, study length 127 weeks): 35.2 mg/kg/day
- TD50 (strain Sprague-Dawley, females, by gavage, site: any site (literature study), lesion: several types, types named in the paper, dosed 59 weeks, study length 129 weeks): 0.878 mg/kg/day
- TD50 (strain Sprague-Dawley, females, by gavage, site: extrahepatic tissue, lesion: angioma, dosed 52 weeks, study length 127 weeks): 408 mg/kg/day
- TD50 (strain Sprague-Dawley, females, by gavage, site: extrahepatic tissue, lesion: angiosarcoma, dosed 52 weeks, study length 127 weeks): 454 mg/kg/day
- TD50 (strain Sprague-Dawley, females, by gavage, site: extrahepatic tissue, lesion: angiosarcoma, dosed 59 weeks, study length 129 weeks): 10.9 mg/kg/day
- TD50 (strain Sprague-Dawley, females, by gavage, site: kidney, lesion: nephroblastoma, dosed 52 weeks, study length 127 weeks): 182 mg/kg/day
- TD50 (strain Sprague-Dawley, females, by gavage, site: liver, lesion: angioma, dosed 52 weeks, study length 127 weeks): 207 mg/kg/day
- TD50 (strain Sprague-Dawley, females, by gavage, site: liver, lesion: angiosarcoma, dosed 52 weeks, study length 127 weeks): 38.6 mg/kg/day
- TD50 (strain Sprague-Dawley, females, by gavage, site: liver, lesion: angiosarcoma, dosed 59 weeks, study length 129 weeks): 3.58 mg/kg/day
- TD50 (strain Sprague-Dawley, females, inhaled, site: Zymbal's gland, lesion: carcinoma, dosed 25 weeks, study length 127 weeks): 1200 mg/kg/day
- TD50 (strain Sprague-Dawley, females, inhaled, site: Zymbal's gland, lesion: carcinoma, dosed 25 weeks, study length 135 weeks): 569 mg/kg/day
- TD50 (strain Sprague-Dawley, females, inhaled, site: Zymbal's gland, lesion: carcinoma, dosed 52 weeks, study length 111 weeks): 67.9 mg/kg/day
- TD50 (strain Sprague-Dawley, females, inhaled, site: Zymbal's gland, lesion: carcinoma, dosed 52 weeks, study length 139 weeks): 1070 mg/kg/day
- TD50 (strain Sprague-Dawley, females, inhaled, site: Zymbal's gland, lesion: carcinoma, dosed 71 weeks, study length 71 weeks): 1190 mg/kg/day
- TD50 (strain Sprague-Dawley, females, inhaled, site: any site (literature study), lesion: several types, types named in the paper, dosed 25 weeks, study length 127 weeks): 309 mg/kg/day
- TD50 (strain Sprague-Dawley, females, inhaled, site: any site (literature study), lesion: several types, types named in the paper, dosed 25 weeks, study length 135 weeks): 51.5 mg/kg/day
- TD50 (strain Sprague-Dawley, females, inhaled, site: any site (literature study), lesion: several types, types named in the paper, dosed 52 weeks, study length 111 weeks): 2.12 mg/kg/day
- TD50 (strain Sprague-Dawley, females, inhaled, site: any site (literature study), lesion: several types, types named in the paper, dosed 52 weeks, study length 139 weeks): 37.4 mg/kg/day
- TD50 (strain Sprague-Dawley, females, inhaled, site: any site (literature study), lesion: several types, types named in the paper, dosed 71 weeks, study length 71 weeks): 70.5 mg/kg/day
- TD50 (strain Sprague-Dawley, females, inhaled, site: brain, lesion: neuroblastoma, dosed 25 weeks, study length 135 weeks): 3630 mg/kg/day
- TD50 (strain Sprague-Dawley, females, inhaled, site: brain, lesion: neuroblastoma, dosed 52 weeks, study length 131 weeks): 4850 mg/kg/day
- TD50 (strain Sprague-Dawley, females, inhaled, site: brain, lesion: neuroblastoma, dosed 71 weeks, study length 71 weeks): 184 mg/kg/day
- TD50 (strain Sprague-Dawley, females, inhaled, site: extrahepatic tissue, lesion: angioma, dosed 25 weeks, study length 135 weeks): 2990 mg/kg/day
